Assay results: patent US20040071687A1, “Adult stem cell recruitment” (priority 2002, published 2004)

Legend:
human CD34+ cells = assay: In vitro transmigration through reconstituted basement membranes (Matrigel transwell); assay type: cell-based; details: for migration of CD34+ cells: Matrigel-coated transwell, SDF-1 100 ng/ml in lower chamber, inhibitor in both chambers (CGS 27023A 1 nM; 5-phenyl-1,10-phenanthroline 1 mM)
Method: Substrate zymography. Supernatants from human MACS-isolated CD34^+ (5×10^3) cells were collected after overnight incubation in serum-free medium with/without SDF-1 (150 ng/ml R&D-Systems) or VEGF (50 ng/ml, PeproTech). MMP activity was determined by gelatin zymography (Lane et al., 2000).
In vitro transmigration through reconstituted basement membranes. […] CD34^+ cells were added to 8 μm pore Matrigel-coated (BD) transwell inserts (Costar, Cambridge Mass.). […] Transmigrated cells were quantified, placed in a clonogenic assay and in long-term cultures to measure the number of CAFC and LTC-IC (Jo et al., 2000).

sKitL = assay: Plasma sKitL by ELISA after adenoviral vector or cytokine treatment; assay type: in vivo; details: MMP-9+/+ mice, five days after treatment
Method: (§1) Mobilization of bone marrow-derived cells by adenovirus delivered factors. […] The vector was injected i.v. as a single dose. Recombinant G-CSF (R&D Systems, MN) was administered subcutaneously daily from day 0-5 at 50 μg/kg body weight. Recombinant murine KitL (peproTech, NJ) was injected s.c. twice a day at 100 or 200 μg/kg body weight.
Immunoassay for chemokines and cytokines. Plasma levels of SDF-1, VEGF, and sKitL were measured using commercially available ELISA (R&D Systems).

[1] = test system: lethally irradiated syngeneic mice; assay: Bone marrow repopulating assay with mobilized PBMCs; assay type: in vivo; details: for long-term engraftment of lethally irradiated syngeneic mice transplanted with mobilized PBMCs: PBMCs from SCID mice given AdSDF-1, AdVEGF or G-CSF, no MPI, n=12
Method: Bone marrow repopulating assay. Chemo/cytokine-mobilized PBMCs from SCID mice treated with/without MPI were collected on day 7. PBMCs from G-CSF-treated MMP-9^−/− and MMP-9^+/+ mice were collected on day 5. Mobilized PBMCs (10^5) were injected into lethally irradiated syngeneic animals (9.5 Gy). Survival was monitored.

MMP-9 = assay: Immunohistochemistry for MMP-9 in bone marrow sections; assay type: in vivo; details: wild type mice; SDF-1 and VEGF by adenoviral vector, G-CSF recombinant
Method: Immunohistochemistry. Bone marrow sections were deparaffinized, rehydrated through an alcohol series immersed in 0.1% H2O2 and blocked using an Avidin and Biotin blocking kit (Vector, Burlingame, Calif.). For MMP-9 staining, the M.O.M. immunodetection kit (Vector) was used as recommended. Sections were incubated with MMP-9 mAb (clone 7-11C, Oncogene, MA) for 30 min, washed in PBS, incubated with a biotinylated horse anti-mouse IgG and incubated for 5 min with A&B reagents (Vector). Von Willebrand Factor (vWF) immunohistochemistry was performed on deparaffinized sections, treated with 3% H2O2, incubated with 0.05% Pronase E (Sigma). Sections were stained with anti-human vWF/HRP (Dako). Sections were developed with 3,3′-diaminobenzidine substrate and counterstained with eosin and hematoxylin.

[2] = test system: white blood cells and hematopoietic progenitors (CFU-Cs); assay: Mobilization of white blood cells and progenitors (peripheral blood analysis, CFU-C); assay type: in vivo, mice; details: for mobilization of mature white blood cells and hematopoietic progenitors (CFU-Cs): plasma elevation in MMP-9+/+ mice, but not in MMP-9−/− mice
Method: as §1
Peripheral blood analysis. Blood was collected with capillary pipettes by retro-orbital bleeding and WBC counts were determined by using a hemocytometer. Peripheral blood mononuclear cells (PBMCs) were isolated from heparinized blood after centrifugation over a discontinuous gradient using Lympholyte-M (Cedarlane, Ontario, Canada).
Progenitor assay. Peripheral blood mononuclear cells (10^5) were plated in Iscove's modified Dulbecco's medium (IMDM) containing 1.2% methylcellulose (Fisher Scientific, NJ), 30% FBS, 5×10^−3M 2-mercaptoethanol 2 mM L-glutamine, 0.5 mM hemin (Sigma), murine KitL (20 ng/ml), human erythropoietin (6U/ml) and murine IL-3 (50 ng/ml). Colonies (>50 cells) were scored after 7 days (37° C., 5% CO2).

[3] = test system: circulating endothelial progenitors (CEPs); assay: Endothelial progenitor assay (CFU-EC, VEGFR2+ cells); assay type: in vivo; details: wild type mice, elevated plasma levels
Method: Endothelial progenitor assay. Circulating bone marrow-derived CEPs were quantified by colony forming unit-endothelial cell (CFU-EC) as previously described (Hattori et al. 2001a). Mobilized PBMCs were cultured in M199 media (GIBCO-BRL, Gaithersburg, Md.) supplemented with 20% FBS (HyClone, UT), ECGF (30 μg/ml), human FGF-basic (Sigma) and heparin. After 5 weeks of culture, adherent cells were scored for colonies (>10 cells). Endothelial colonies were identified by metabolic uptake of DiI-Acetylated-LDL (1 μg/ml; PerImmune Inc, Rockville, Md.) at 37° C. for 5 hours, and visualized fluorescence microscopy. The number of VEGFR2^+ cells was quantified by FACS using a Cy2-labeled mAb to VEGFR2 (clone DC101, ImClone, NY), (Hattori et al. 2001a).

[4] = test system: MMP-9−/− and MMP-9+/+ mice; assay: 5-FU myelosuppression: survival and hematopoietic recovery
Method: Administration of 5-FU. MMP-9^−/− and MMP-9^+/+ mice were injected with the cell cycle cytotoxic agent 5-fluorouracil (5-FU) to deplete cycling hematopoietic cells. In particular, 250 mg/kg body weight 5-FU (Pharmacia & Upjohn Company) was administered intravenously (i.v.). At specified time points, mice were sacrificed. Femurs were flushed and bone marrow cells were used for cell cycle analysis or subjected to magnetic bead isolation (MACS) (Miltenyi Biotec). Lineage-negative bone marrow cells were isolated by MACS after labeling the cells with a depletion cocktail of lineage-specific monoclonal antibodies (mAbs), including CD5, CD45R, CD11b, Gr-1, TER119, 7/4 (Stem Cell Technology, Canada). Lin^− cells were MACS isolated with mAb against Sca-1. […] For cell cycle analysis whole bone marrow cells of MMP-9^−/− and MMP-9^+/+ mice were labeled with Sca-1-FITC. Lin^−Sca-1^+bone marrow cells were labeled with c-Kit-FITC. Labeled bone marrow cells and Lin^−Sca-1^+cells were fixed in ice-cold ethanol for 30 min. After RNAase treatment (Sigma, MO), cells were stained with propidium iodide (Molecular-Probes, Oregon). The DNA content of Sca-1 and Lin^−Sca-1^+c-Kit^+ cells was determined by FACS (Coulter flow cytometer). […]
Peripheral blood analysis. Blood was collected with capillary pipettes by retro-orbital bleeding and WBC counts were determined by using a hemocytometer. […]

Sca-1+ bone marrow cells = assay: Cell cycle analysis of bone marrow Sca-1+ cells after 5-FU; assay type: in vivo, mice
Method: Administration of 5-FU. MMP-9^−/− and MMP-9^+/+ mice were injected with the cell cycle cytotoxic agent 5-fluorouracil (5-FU) to deplete cycling hematopoietic cells. In particular, 250 mg/kg body weight 5-FU (Pharmacia & Upjohn Company) was administered intravenously (i.v.). At specified time points, mice were sacrificed. Femurs were flushed and bone marrow cells were used for cell cycle analysis or subjected to magnetic bead isolation (MACS) (Miltenyi Biotec). Lineage-negative bone marrow cells were isolated by MACS after labeling the cells with a depletion cocktail of lineage-specific monoclonal antibodies (mAbs), including CD5, CD45R, CD11b, Gr-1, TER119, 7/4 (Stem Cell Technology, Canada). Lin^− cells were MACS isolated with mAb against Sca-1. […] For cell cycle analysis whole bone marrow cells of MMP-9^−/− and MMP-9^+/+ mice were labeled with Sca-1-FITC. Lin^−Sca-1^+bone marrow cells were labeled with c-Kit-FITC. Labeled bone marrow cells and Lin^−Sca-1^+cells were fixed in ice-cold ethanol for 30 min. After RNAase treatment (Sigma, MO), cells were stained with propidium iodide (Molecular-Probes, Oregon). The DNA content of Sca-1 and Lin^−Sca-1^+c-Kit^+ cells was determined by FACS (Coulter flow cytometer).

[5] = test system: MS-5 murine stromal cells; assay: Release of sKitL from stromal cell line cultures; assay type: cell-based; details: MS-5 cells, serum-free medium, 24 hours
Method: Stromal cell line cultures. […] Immunoassay for chemokines and cytokines. Plasma levels of SDF-1, VEGF, and sKitL were measured using commercially available ELISA (R&D Systems).

[6] = test system: lethally irradiated syngeneic recipients; assay: CFU-S assay; assay type: in vivo; details: chemokine/cytokine-treated SCID mice given metalloproteinase inhibitor
Method: CFU-S assay. Mobilized peripheral blood mononuclear cells (10^5/mouse) of chemokine-treated SCID mice were injected i.v. into lethally irradiated syngeneic recipients (9 Gy). Spleens were removed 12 days later and fixed in Bouin's solution. The number of macroscopic spleen colonies was scored.

Molecule: VEGF
- release of pro-MMP-9 and migration of human CD34+ progenitor and stem cells (human CD34+ cells; transwell migration assay, chemoattractant): stimulate the release of pro-MMP-9 and induce migration
- plasma sKitL levels compared to untreated animals (sKitL): increased plasma sKitL levels
- long-term engraftment of lethally irradiated syngeneic mice transplanted with mobilized PBMCs [1]: 40%
- immunoreactive MMP-9 in bone marrow stromal and hematopoietic cells (MMP-9): increased immunoreactive MMP-9
- mobilization of mature white blood cells and hematopoietic progenitors (CFU-Cs) [2]: mobilized mature white blood cells
- mobilization of circulating endothelial progenitors (CFU-EC, VEGFR2) [3]: increased the mobilization of circulating endothelial progenitors

Molecule: O=c1[nH]cc(F)c(=O)[nH]1 [5-FU, 5-fluorouracil]
- survival of 5-FU-treated mice ([4]; MMP-9+/+, mouse, in vivo, iv): all of the MMP-9^+/+ mice survived
- death of 5-FU-treated mice ([4]; MMP-9−/− mice, single i.v. dose, n=16): 72%
- total number of Sca-1+ cells in S-phase (Sca-1+ bone marrow cells; MMP-9+/+ mice, day 6 after 5-FU): 2.2±0.05 ×10^5/femur
- total number of Sca-1+ cells in S-phase (Sca-1+ bone marrow cells; MMP-9+/+ mice, day 10 after 5-FU): 11.5±0.3 ×10^5/femur
- total number of Sca-1+ cells in S-phase (Sca-1+ bone marrow cells; MMP-9−/− mice, day 6 after 5-FU): 1.0±0.03 ×10^5/femur
- total number of Sca-1+ cells in S-phase (Sca-1+ bone marrow cells; MMP-9−/− mice, day 10 after 5-FU): 2.1±0.04 ×10^5/femur

Molecule: c1ccc(-c2cc3cccnc3c3ncccc23)cc1 [5-phenyl-1,10-phenanthroline]
- migration of CD34+ cells (human CD34+ cells): completely blocked

Molecule: COc1ccc(S(=O)(=O)N(Cc2cccnc2)[C@@H](C(=O)NO)C(C)C)cc1 [CGS 27023A]
- migration of CD34+ cells (human CD34+ cells): completely blocked
- release of sKitL [5]: blocked
- time within which all recipient mice died ([1]; recipients of PBMCs from MPI-treated mice): ≤ 19 days
- mobilization of hematopoietic cells with short-term repopulating potential (CFU-S) [6]: completely blocked
- white blood cell counts and chemokine-induced mobilization ([2]; MMP-9 competent mice (data not shown)): decreased white blood cell counts and blocked chemokine-induced mobilization

B1: G-CSF: recombinant granulocyte colony stimulating factor (R&D Systems), s.c. daily day 0-5 (protein, UniProt P09919 31-207, looked up)
Granulocyte …: TPLGPASSLPQSFLLKCLEQVRKIQGDGAALQEKLVSECATYKLCHPEELVLLGHSLGIPWAPLSSCPSQALQLAGCLSQLHSGLFLYQGLLQALEGISPELGPTLDTLQLDVADFATTIWQQMEELGMAPALQPTQGAMPAFASAFQRRAGGVLVASHLQSFLEVSYRVLRHLAQP
- plasma sKitL levels compared to untreated animals (sKitL): increased plasma sKitL levels
- survival of transplanted recipients ([1]; MMP-9+/+ mice, PBMCs obtained day 5, n=8/group): 100%
- day by which all mice died ([1]; MMP-9−/− mice treated with G-CSF, n=8/group): ~18 days
- long-term engraftment of lethally irradiated syngeneic mice transplanted with mobilized PBMCs [1]: 80%
- immunoreactive MMP-9 in bone marrow stromal and hematopoietic cells (MMP-9): increased immunoreactive MMP-9
- mobilization of mature white blood cells and hematopoietic progenitors (CFU-Cs) [2]: mobilized mature white blood cells
